Common to all, as to format: functional, cell-based
In experiment [1] the test system is L1210. Kind of experiment: Cytotoxicity against mouse L1210 cells.
A short description of experiment [2]: Cytotoxicity against human Molt 4/C8 cells. Particulars: Molt4/C8.
Experiment [3] relates to CCRF-CEM. Nature of the experiment: Cytotoxicity against human CEM cells.

For the compound `COc1ccc(/C=N/NC(N)=S)cc1`, the results for the IC50 in experiment [1], in experiment [2] and in experiment [3] were 232 µM, 196 µM and 158 µM, respectively.
The matching figures for `Oc1ccccc1/C=N/c1ccc(F)c(Cl)c1`: 68 µM, 112 µM and 100 µM.
In the case of `NC(=S)N/N=C/c1ccccc1F`, the IC50 (usually the concentration that inhibits the measured activity by half) in experiment [1] is 242 µM; in experiment [2], 140 µM; in experiment [3] it was 166 µM.
The matching figures for `NC(=S)N/N=C/c1ccc(Cl)cc1`: 284 µM, 302 µM and 194 µM.
For `NC(=S)/N=N/c1c(O)[nH]c2ccccc12` the same measures were 382 µM, 405 µM and 249 µM.
For `NC(=S)N/N=C/c1ccccc1Cl` the same measures were 84 µM, 200 µM and 98 µM.

Values taken from ChEMBL document CHEMBL1139806, “Synthesis, anticancer, and cytotoxic activities of some mononuclear Ru(II) compounds” (Bioorg Med Chem, 2007).
